Laboratory results taken from PMC5635026, “Homo-PROTACs: bivalent small-molecule dimerizers of the VHL E3 ubiquitin ligase to induce self-degradation” (Nature Communications, 2017).
Where “and” joins values, the source holds several entries; their conditions need not be identical. Equal values may be shown once.

Key:
[1] = system: Leucine-rich repeat-containing protein 42 (LRRC42); test: TMT MS proteomics in HeLa cells, LRRC42 abundance; assay type: cell-based, Homo sapiens; settings: 1 µM, 10 h, two replicates
Protocol: MS proteomics. Sample preparation. HeLa cells were seeded at 5 × 10^6 on a 10 cm plate 16 h before treatment. […] Cells were incubated at 37 °C and 5% CO2 for 10 h before harvesting. Cells were placed on ice and medium was removed and cells were washed twice with cold PBS. Cells were lysed in 0.5 ml of 100 mM Tris pH 8.0, 4% (w/v) SDS supplemented with protease inhibitor cocktail (Roche). The lysate was pulse sonicated briefly and then centrifuged at 17,000 × g for 15 min at 4 °C. The supernatant fraction of cell extract was snap-frozen in liquid nitrogen and stored in −80 °C freezer. Further sample processing, digestion, desalting, labeling and fractionation were performed as previously described.
nLC-MS/MS analysis. The TMT 10plex fractions were first analyzed as previously described. Briefly, the TMT 10plex fractions were analyzed sequentially on a Q Exactive HF Hybrid Quadrupole-Orbitrap Mass Spectrometer (Thermo Scientific) coupled to an UltiMate 3000 RSLCnano UHPLC system (Thermo Scientific) and EasySpray column (75 μm × 50 cm, PepMap RSLC C18 column, 2 μm, 100 Å, Thermo Scientific). The MS2 isolation window was set to 0.4 Da and the resolution set at 120,000. MS2 resolution was set at 60,000. The AGC targets for MS1 and MS2 were set at 3e^6 ions and 1e5 ions, respectively. The normalized collision energy was set at 32%. […] After the first analysis, the TMT labeled fractions were re-analyzed on the Q-Exactive HF using the same instrument settings and a target list generated from a theoretical trypsin digest of VHL. […] After the second analysis, two fractions were further analyzed using a targeted SIM/ddMS2 method on the Q-Exactive HF. […]
Peptide and protein identification. All the raw MS data files from the three analyses were merged and searched against the Uniprot-sprot-Trembl-Human-Canonical database by Maxquant software 1.5.3.30 for protein identification and TMT reporter ion quantitation. […] Quantified proteins were filtered if the absolute fold-change difference between the two DMSO replicates was ≥ 1.5.

pVHL19 = pVHL19 (Homo sapiens, UniProt P40337); test: Isothermal titration calorimetry (ITC) against VCB complex with short VHL isoform (V19CB); assay type: binding; design: made in house; settings: for ΔG / ΔH / −TΔS / Kd / n: 25 °C; for ΔG / ΔH / −TΔS / α: pVHL19; for Kd / n: pVHL19 (V19CB); for n: stoichiometry of binding; for α: avidity / cooperativity compared to VH032, ITC
Chain of pVHL19 (P40337 54-213): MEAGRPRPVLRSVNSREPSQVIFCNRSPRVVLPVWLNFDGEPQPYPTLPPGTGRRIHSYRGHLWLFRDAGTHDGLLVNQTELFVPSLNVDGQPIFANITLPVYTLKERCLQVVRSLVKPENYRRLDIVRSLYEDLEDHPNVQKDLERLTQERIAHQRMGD
Chain of pVHL19 (Q15369 17-112 partner limits assumed): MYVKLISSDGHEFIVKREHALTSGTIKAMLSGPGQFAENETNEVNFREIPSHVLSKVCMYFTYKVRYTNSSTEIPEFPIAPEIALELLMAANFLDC
Chain of pVHL19 (Q15370 1-104 partner limits assumed): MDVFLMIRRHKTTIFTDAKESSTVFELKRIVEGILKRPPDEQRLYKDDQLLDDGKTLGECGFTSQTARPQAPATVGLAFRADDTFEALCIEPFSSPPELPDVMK
Protocol: Protein expression and purification. Human proteins VHL (UniProt accession number: P40337), ElonginC (Q15369), and ElonginB (Q15370) were used for all protein expression. The short-isoform-containing VCB complex (V19CB) was expressed, purified and stored as described previously. For expression of the long-isoform-containing VCB complex (V30CB), N-terminally His6-tagged VHL (1–213), ElonginC (17–112) and ElonginB (1–104) were co-expressed in Escherichia coli BL21(DE3) at 20 °C for 18 h using 0.5 mM isopropyl β-D-1-thiogalactopyranoside (IPTG). E. coli cells were resuspended in binding buffer (50 mM HEPES, pH 8.0, 500 mM NaCl, 10 mM imidazole and 5 mM β-mercaptoethanol), lysed using a pressure cell homogenizer (Stansted Fluid Power), and lysate clarified by centrifugation. The supernatant was loaded onto a HisTrap FF affinity column (GE Healthcare) equilibrated with binding buffer, and bound protein was eluted using an imidazole gradient. The His6 tag was removed using thrombin protease (Sigma), and the untagged complex was dialyzed into binding buffer. V30CB was then loaded onto the HisTrap FF column a second time, allowing impurities to bind as the complex eluted without binding. The flow-through was dialyzed using a low-salt buffer (20 mM HEPES, pH 8.0, 25 mM NaCl and 1 mM DTT) and then loaded onto a Resource Q anion exchange column (GE Healthcare); bound protein was eluted across a linear NaCl gradient. V30CB was then additionally purified by size-exclusion chromatography using a Superdex-75 16/600 column (GE Healthcare) equilibrated with 20 mM HEPES, pH 7.5, 100 mM sodium chloride and 1 mM TCEP. All chromatography purification steps were performed using Äkta FPLC purification systems (GE Healthcare).
Isothermal titration calorimetry (ITC). Titrations were performed on an ITC200 micro-calorimeter (GE Healthcare). […] The final DMSO concentration was 0.15% v/v. VCB protein experiments were carried out in a buffer containing 20 mM Bis-tris propane, 150 mM NaCl, 1 mM TCEP, 0.15% v/v DMSO, pH 7.4. The titrations consisted of 19 injections of 2 µL compounds solution (150 µM, in the syringe) at a rate of 0.5 µl s^−1 at 120 s time intervals into the VCB protein solution (20 µM, in the cell). An initial injection of compound solution (0.4 µL) was made and discarded during data analysis. All experiments were performed at 25 °C, whilst stirring the syringe at 600 rpm. The data were fitted to a single binding site model to obtain the stoichiometry n, the dissociation constant K d and the enthalpy of binding ΔH using the Microcal LLC ITC200 Origin software provided by the manufacturer.

Structure (SMILES)	average normalized ratio to DMSO, LRRC42 [1]	ΔG (pVHL19; ITC)	ΔH (pVHL19; ITC)	−TΔS (pVHL19; ITC)	Kd (pVHL19; ITC) [µM]	n (pVHL19; ITC)	α (pVHL19)	avidity (cooperativity α) compared to VH032 (pVHL19; ITC, VCB) [fold]
Cc1ncsc1-c1ccc(CNC(=O)[C@@H]2C[C@@H](O)CN2C(=O)[C@@H](NC(=O)COCCOCCOCCOCCOCC(=O)N[C@H](C(=O)N2C[C@H](O)C[C@H]2C(=O)NCc2ccc(-c3scnc3C)cc2)C(C)(C)C)C(C)(C)C)cc1 [CM10, N ^1 ,N ^17-bis((S)-1-((2S,4R)-4-hydroxy-2-((4-(4-methylthiazol-5-yl)benzyl)carbamoyl)pyrrolidin-1-yl)-3,3-dimethyl-1-oxobutan-2-yl)-3,6,9,12,15-pentaoxaheptadecanediamide]	0.64	–10.2 ± 0.1 kcal mol^−1	–9.4 ± 0.1 kcal mol^−1	–0.8 ± 0.2 kcal mol^−1	0.032 ± 0.005	0.73 ± 0.01	6	
Cc1ncsc1-c1ccc(CNC(=O)[C@@H]2C[C@@H](O)CN2C(=O)[C@@H](NC(=O)COCCOCCOCCOCC(=O)N[C@H](C(=O)N2C[C@H](O)C[C@H]2C(=O)NCc2ccc(-c3scnc3C)cc2)C(C)(C)C)C(C)(C)C)cc1 [CM09, N ^1 ,N ^14-bis((S)-1-((2S,4R)-4-hydroxy-2-((4-(4-methylthiazol-5-yl)benzyl)carbamoyl)pyrrolidin-1-yl)-3,3-dimethyl-1-oxobutan-2-yl)-3,6,9,12-tetraoxatetradecanediamide]	2.15	–10.3 ± 0.2 kcal mol^−1	–6.9 ± 0.3 kcal mol^−1	–3.5 ± 0.5 kcal mol^−1	0.041 ± 0.015	0.98 ± 0.09	4	
Cc1ncsc1-c1ccc(CNC(=O)[C@@H]2C[C@@H](O)CN2C(=O)[C@@H](NC(=O)COCCOCCOCCOCCOCCOCC(=O)N[C@H](C(=O)N2C[C@H](O)C[C@H]2C(=O)NCc2ccc(-c3scnc3C)cc2)C(C)(C)C)C(C)(C)C)cc1 [CM11, N ^1 ,N ^20-bis((S)-1-((2S,4R)-4-hydroxy-2-((4-(4-methylthiazol-5-yl)benzyl)carbamoyl)pyrrolidin-1-yl)-3,3-dimethyl-1-oxobutan-2-yl)-3,6,9,12,15,18-hexaoxaicosanediamide]	0.60	–10.9 ± 0.1 kcal mol^−1		1.4 kcal/mol and 1.4 ± 0.8 kcal/mol	0.011 ± 0.002	0.6 ± 0.01	18	> 18
